Assay results reported in a melting point compilation (Tetko et al.; mined from patent text by program, amines drawn as free bases though some values may be those of a salt).
Non-standard residues stand in square brackets, D forms with d. Residues, ends and D or L forms follow the SMILES beside them. *: point of attachment. Tos = Cc1ccc(S(=O)(=O)*)cc1; OBn = c1ccc(CO*)cc1; Sar = CNCC(=O)O

Row | SMILES | melting point [°C]
1 | N=C(NCc1cnccn1)NN=Cc1c(Cl)cccc1Cl | 168 to 169
2 | O=C(O)c1cc(-c2ccc(C(F)(F)F)cc2)cnc1O | 305 to 315
3 | CC(C=O)Cc1cc(C(C)(C)C)c(O)c(C(C)(C)C)c1 (stereo not given) | 162 to 164
4 | CCc1cc(C(=O)O)c(Nc2ccccc2[N+](=O)[O-])s1 | 189 to 191
5 | CC(=O)OCC1OC(c2ccc(F)c(Cc3cccs3)c2)C(OC(C)=O)C(OC(C)=O)C1OC(C)=O (stereo not given) | 119 to 121
6 | COc1ccc2[nH]c3cc(-c4cc([N+](=O)[O-])ccc4OC)c4c(c3c2c1)C(=O)NC4=O | 302 to 304
7 | O=c1cc(COC2CCCCO2)occ1OCCCCCBr (stereo not given) | 140
8 | CCCCN1CCC(c2c[nH]c3ccc(NS(C)(=O)=O)cc23)CC1 | 78
9 | Cc1cc(C)cc([PH](=O)c2cc(C)cc(C)c2)c1 | 82.4
10 | Cc1cc(-n2cncn2)ncc1[N+](=O)[O-] | 198 to 200
11 | CCCCCNC(=O)N(CCCc1ccncc1)CCC12CC3CC(CC(C3)C1)C2 | 47 to 50
12 | CCCCCCCCCCC(O)C(=O)N[C@@H](CCCC)CCC(=O)O (stereo not given in full) | 53 to 55
13 | COC(=O)c1cccn1CC(I)=C(I)I | 88 to 90
14 | CCCCCCCCCCCc1coc(NC(=O)Nc2c(C(C)C)cccc2C(C)C)n1 | 104 to 108
15 | C[C@@H](NC(=O)c1c[nH]c2ncc(-c3nn(C)c4cc(Cl)ccc34)nc12)C(=O)N1CC[C@H](F)C1 | 269 to 271
16 | O=C1Nc2ccc(Cl)cc2Cn2nnnc21 | 260 to 264
17 | CCc1c(OC)cc2c(c1O)C(=O)C[C@H]1CCN(C)C[C@@H]21 (relative stereo) | 221 to 223
18 | CC(=O)OC(=CC(=O)O)CC(=O)Nc1cccc(F)c1 | 117
19 | NCC1Cc2cc(C(F)(F)F)cc(-c3cccc(F)c3)c2O1 (stereo not given) | > 250
20 | CC(C)(C)C(=O)c1c[nH]c2ncc(-c3cc(OCCS(C)(=O)=O)cc(N4CCCC4)c3)nc12 | 230 to 232
21 | O=[N+]([O-])c1ccc2[nH]cc(C3=CCNCC3)c2c1 | 250

Row | SMILES | melting point [°C]
22 | C1=Cn2cnnc2Cc2ccsc21 | 146
23 | O=C(O)c1cn(C2CC2)c2c(F)c(N3CCN(O)CC3)c(F)cc2c1=O | 223 to 227
24 | CCCCCCCCCCCCCCCCCCN1C(=O)c2ccccc2C1=O | 78 to 79
25 | Cc1ccc([N+](=O)[O-])cc1/C=C/c1nc(C(C)C)cs1 | 87 to 88
26 | Cc1[nH]c2ccc(Cl)cc2c1C(C(=O)C1(Cl)C=CC=CC1)c1cc(=O)n(C2CCCCC2)[nH]1 (stereo not given) | 121
27 | N#CSc1nc(Nc2ccc(Cl)cc2)ncc1[N+](=O)[O-] | 240 to 242
28 | CCOC(=O)c1c(C(F)(F)F)nc(C(F)(F)F)c(C(=O)OC)c1Cl | 46 to 48
29 | Cc1ccc(C(N)=O)c(C)c1 | 184 to 186
30 | COC(=O)c1nsnc1N | 142 to 143
31 | Nc1ccc(F)c(-c2cncnc2)c1F | 141 to 143
32 | COc1ccc(-c2cn3c(n2)CCC3)cc1 | 116 to 118
33 | COc1cccc(C2(C(C)(C)O)CCN(C)CC2)c1 | 100
34 | Cc1c(C(=O)O)cnn1-c1ccc(Cl)c(Cl)c1 | 188
35 | Cn1nc2nnsc2c1C(N)=O | 183 to 184
36 | N#Cc1cnn(-c2c(Cl)cc(Cl)cc2Cl)c1Cl | 78 to 79
37 | COC(=O)c1nc(-c2ccc(Cl)c(F)c2)c(F)c(N)c1SC | 125 to 126
38 | CCCCCCCCCCOc1cnc(-c2ccc(C#CCCCC(C)O)cc2)nc1 (stereo not given) | 82 to 83
39 | OCCCC#Cc1ccc(C(=C2CCCCCC2)c2ccc(O)cc2)cc1 | 125 to 126
40 | CC(OC(=O)c1ccccc1)P(=O)(O)OC(CCCCN)C(=O)N1CCCC1C(=O)O (stereo not given) | 186 to 192
41 | COC1=CC(=O)OC1=C(COC(C)=O)C(C)C(C)=O (stereo not given) | 54 to 56
42 | COCC#Cc1ncn2c1CN(C)C(=O)c1ccccc1-2 | 114 to 115

Continued, values first:

Row | melting point [°C] | SMILES
43 | 184 | Fc1ccc2[nH]cc(CC3CCN(CC4COc5ccc6ncccc6c5O4)CC3)c2c1 (stereo not given)
44 | 153 to 156 | Cc1ccc(-c2ccc(S(=O)(=O)Nc3onc(C)c3Br)cc2)cc1
45 | > 275 | Cc1ccccc1-n1c(-c2sc(Nc3ccc(Cl)cc3)nc2C)nc2ccccc2c1=O
46 | 65 to 67 | CCOC(=O)C(Cc1ccc(C(=O)C(C)(C)C)cc1)(Cc1ccc(C(=O)C(C)(C)C)cc1)C(=O)OCC
47 | 229 to 231 | O=C(O)c1ccccc1SCCCCOc1ccc(C=Cc2ccncc2)cc1
48 | 233 to 234 | O=P(Oc1ccc(-c2ccc(OP(=O)(c3ccccc3)c3ccccc3)cc2)cc1)(c1ccccc1)c1ccccc1
49 | 180 to 190 | O=C1C(=O)N(c2ccc(F)cc2)c2ccc(F)cc21
50 | 175 to 180 | CC1(O)c2ccccc2-c2c1c(-n1ccnc1)nc1ccc(Br)cc21 (stereo not given)
51 | 160 to 162 | O=C(NCCO)/C(=C/c1ccc(OC(F)F)cc1)NC(=O)c1ccc(OCCc2ccc(Cl)cc2)cc1
52 | 209 to 210 | O=C(O)C(=O)c1ccc(OCC(=O)N2CCC(c3ccccc3)CC2)cc1
53 | 108 to 109 | CCOc1ccccc1OCC(O)CNC(C)=CC(=O)c1ccc(C)nc1 (single isomer, unassigned; (-))
54 | 74 to 75 | CN(CCOc1ccc(C=O)cc1)c1ncccn1
55 | 115 to 116 | CC1(C)N=C(n2ccccc2=O)c2cc(C#N)ccc2O1
56 | 52 to 55 | COC(=O)C[C@H](O)C[C@H](O)CCc1c(-c2ccc(F)cc2)c(-c2ccccc2)c(C(=O)NCc2ccccc2)n1C(C)C
57 | 95 to 96.5 | COc1ccc(/C(=C/C=C/C(=O)Oc2ccc([N+](=O)[O-])cc2)C(C)C)cc1
58 | 219 to 221 | CC(=O)NCc1nc(-c2ccc3c(c2)Nc2ccccc2S3)cs1
59 | 104 to 105 | Cc1oc(-c2ccccc2)nc1COc1ccc(CCC(C(=O)O)c2c[nH]nc2-c2ccccc2)cc1 (stereo not given)
60 | 100 to 112 | COC(=O)C(O)Cc1ccc(OCCN(C)c2nc3ccccc3o2)cc1 (stereo not given)
61 | 159 to 160 | FC(F)(F)c1cccc(CSc2nnc(-c3ccc4[nH]ncc4c3)o2)c1
62 | 146 to 148 | Cc1cc(OCc2ccc(-c3ccc(OC(F)(F)F)cc3)nc2)ccc1OC(C)(C)C(=O)O
63 | 219 to 220 | COc1ccnn2c(-c3ccnc(N)c3)c(-c3ccc(F)c(C)c3)nc12
64 | 222 to 223 | N#Cc1ccc(OCc2ccc(Cl)c(Cl)c2)cc1
65 | 184 to 185 | CN(c1ccc(F)cc1)c1nc(=O)c2cccnc2s1
66 | 182 to 184 | COc1ccc2cc(-c3ccc(S(C)(=O)=O)cc3)ccc2n1
67 | 146 | CCOC(=O)CN(Cc1ccccc1Cl)c1ccc(C(O)(C(F)(F)F)C(F)(F)F)cc1
68 | 128 to 129 | CCCCc1nc2c(N)nc(C)c(C)c2n1CCCCNC(=O)c1ccccc1
69 | 200 to 201 | Cc1c(Cc2cccc(C(F)(F)F)c2)oc2c(-c3cc(C(=O)NCCC#N)ccn3)cccc12

Row | melting point [°C] | SMILES
70 | 128 | CCCCCCC(C(=O)O)n1cnc(NC(=O)C2(O)c3ccccc3-c3ccccc32)c1 (stereo not given)
71 | 112 | CNC(=O)OCC(F)(F)Cn1nc(C)c(-c2ccc3c(c2)NC(=O)CO3)c1-c1ccc(F)cc1
72 | 94 to 96 | CC(C)Oc1ccc(-n2c(C(=O)NCC(=O)O)c(Cl)c3cc(Oc4ccc(C(F)(F)F)cc4)ccc32)cc1
73 | 104 to 106 | Nc1cccc(CN2CCN(C(c3ccccc3)c3ccccc3)CC2)c1
74 | 209 to 210 | CC1(C)Oc2ccc(C#N)cc2C(n2nc(-c3c(-c4ccccc4)nn4ccccc34)ccc2=O)C1O (stereo not given)
75 | 168 to 169 | COc1cc(COc2nn(C)cc2C(N)=O)ccc1OCc1nc(-c2ccccc2)oc1C
76 | 218 to 220 | O=C1c2ccccc2C(=O)c2c1c(Oc1ccc(CCCO)cc1)c1ccccc1c2Oc1ccc(CCCO)cc1
77 | 162 | Cc1cc2c(NCc3ccc4c(c3)OCO4)nc(-n3ccnc3)nc2s1
78 | 142 to 144 | O=C(CCS(=O)(=O)CCOCCc1ccccc1)NCCc1ccc(O)c2[nH]c(=O)sc12
79 | 168 | CCCc1nc(SC2CCC(=CC(=O)O)CC2)c(C(=O)O)n1Cc1cc2c(cc1Cl)OCO2 (stereo not given)
80 | 180 to 181 | CCCCCCCCc1ccc(N(c2ccc(CCCCCCCC)cc2)C2(c3ccc(N(CC)CC)cc3)OC(=O)c3nccnc32)cc1 (stereo not given)
81 | 240 to 242 | CCOCc1nc2c(N)nc3ccccc3c2n1Cc1cc(-c2cccnc2)no1
82 | 100 to 101 | O=S(=O)(/C=C\S(=O)(=O)c1ccccc1)c1ccccc1
83 | 173 | COC(=O)[C@@H]1CCC(c2cccc(O)c2)N1C(=O)CNC(=O)OCc1ccccc1 (stereo not given in full)
84 | 80 to 82 | Cc1ccc(S(=O)(=O)N(C)CC(=O)N[C@@H](Cc2ccccc2)C(=O)OCc2ccccc2)cc1 (Tos-[Sar]-Phe-OBn)
85 | 99 to 101 | COC(C)CCOc1c(-c2ccc(S(C)(=O)=O)cc2)cnn(-c2ccc(F)c(F)c2)c1=O (stereo not given)
86 | 192 to 194 | Brc1ccc2nc(-c3ccccc3)cn2c1
87 | 87 to 88 | COC(=O)C(CCCCNC(=O)c1ccc(NC(=O)OCc2ccccc2)cc1)n1c2ccccc2c2ccccc21 (stereo not given)
88 | 119 to 120 | COC1(c2ccc(Sc3ccc4c(ccc(=O)n4C)c3)s2)CCOCC1
89 | 158 to 159 | CN(C)CC1COc2ccc(NC(=O)c3ccc(-c4ccc(Cl)cc4)cc3)cc2O1 (stereo not given)
90 | 141 to 144 | COc1ccc(-n2nc(Sc3ccc(C(C)C)cc3)c(C)c(C#N)c2=O)cc1
91 | 120 to 122 | Cc1ccc(Sc2nc(-c3ccccc3)cnc2N)cc1
92 | 162 to 164 | CCCCOc1c(CN2C(=O)c3ccccc3C2=O)n(CC(C)(C)C)c(=O)c2ccc(F)cc12
93 | 192 | O=C1CCC(c2ccccc2)(c2ccccc2)C2CN(C(Cc3ccccc3)=NCc3ccccc3Cl)CC12 (stereo not given)
94 | 139 to 141 | Cc1nc(N(Cc2ccccc2)Cc2ccccc2)c2nc(Cc3ccccc3)n(CCc3ccccc3)c2c1C
95 | 74 to 75.5 | CCN(C=C1C(=O)N(c2cccc(Cl)c2)c2ccccc21)CC
